Source: ChEMBL document CHEMBL5356967, “Design, synthesis, evaluation and optimization of novel azole analogues as potent antifungal agents” (Bioorg Med Chem, 2024)
Values after ≈ are worked out from the molar mass of the structure shown. Active and inactive are the calls of the source. The calls are words filed in the database; no cut-off is given here.

Experiments:
Candida albicans [1] = assay: Antifungal activity against Candida albicans Y0109 assessed as inhibition of fungal growth incubated for 24 hrs by broth microdilution method; format: functional
Candida albicans [2] = assay: Antifungal activity against Candida albicans SC5314 assessed as inhibition of fungal growth incubated for 24 hrs by broth microdilution method; format: functional
Cryptococcus neoformans [3] = assay: Antifungal activity against Cryptococcus neoformans ATCCBLS108 assessed as inhibition of fungal growth incubated for 72 hrs by broth microdilution method; format: functional
Candida parapsilosis [4] = assay: Antifungal activity against Candida parapsilosis 0306392 assessed as inhibition of fungal growth incubated for 24 hrs by broth microdilution method; format: functional; details: Lodderomyces parapsilosis
Candida tropicalis [5] = assay: Antifungal activity against Candida tropicalis 0370354 assessed as inhibition of fungal growth incubated for 24 hrs by broth microdilution method; format: functional
Trichophyton rubrum = assay: Antifungal activity against Trichophyton rubrum 0501124 assessed as inhibition of fungal growth incubated for 24 hrs by broth microdilution method; format: functional
Nannizzia gypsea = assay: Antifungal activity against Microsporum gypseum 0310388 assessed as inhibition of fungal growth incubated for 24 hrs by broth microdilution method; format: functional
Aspergillus fumigatus = assay: Antifungal activity against Aspergillus fumigatus 0504656 assessed as inhibition of fungal growth incubated for 48 hrs by broth microdilution method; format: functional
Candida albicans [6] = assay: Potency index, ratio of Ketoconazole MIC80 to test compound MIC80 for antifungal activity against Candida albicans Y0109 assessed as inhibition of fungal growth incubated for 24 hrs by broth microdilution method; format: functional
Candida albicans [7] = assay: Potency index, ratio of Fluconazole MIC80 to test compound MIC80 for antifungal activity against Candida albicans Y0109 assessed as inhibition of fungal growth incubated for 24 hrs by broth microdilution method; format: functional
Candida albicans [8] = assay: Potency index, ratio of Ketoconazole MIC80 to test compound MIC80 for antifungal activity against Candida albicans SC5314 assessed as inhibition of fungal growth incubated for 24 hrs by broth microdilution method; format: functional
Candida albicans [9] = assay: Potency index, ratio of Fluconazole MIC80 to test compound MIC80 for antifungal activity against Candida albicans SC5314 assessed as inhibition of fungal growth incubated for 24 hrs by broth microdilution method; format: functional
Candida albicans [10] = assay: Antifungal activity against fluconazole-resistant Candida albicans 901 assessed as inhibition of fungal growth incubated for 24 hrs by broth microdilution method; format: functional
Candida albicans [11] = assay: Antifungal activity against fluconazole-resistant Candida albicans 904 assessed as inhibition of fungal growth incubated for 24 hrs by broth microdilution method; format: functional
NIH3T3 = assay: Cytotoxicity against mouse NIH/3T3 cells assessed as reduction in cell viability at below 16 microg/ml incubated for 24 hrs by CCK-8 assay; format: toxicity, cell-based; details: nih3t3, 24 h, dose < 16 µg/ml
Candida parapsilosis [12] = assay: Potency index, ratio of Itraconazole MIC80 to test compound MIC80 for antifungal activity against Candida parapsilosis 0306392 assessed as inhibition of fungal growth incubated for 24 hrs by broth microdilution method; format: functional
Candida parapsilosis [13] = assay: Potency index, ratio of Fluconazole MIC80 to test compound MIC80 for antifungal activity against Candida parapsilosis 0306392 assessed as inhibition of fungal growth incubated for 24 hrs by broth microdilution method; format: functional
Candida parapsilosis [14] = assay: Potency index, ratio of Ketoconazole MIC80 to test compound MIC80 for antifungal activity against Candida parapsilosis 0306392 assessed as inhibition of fungal growth incubated for 24 hrs by broth microdilution method; format: functional
Cryptococcus neoformans [15] = assay: Antifungal activity against Cryptococcus neoformans ATCCBLS108 assessed as inhibition of fungal growth at 4 ug/ml incubated for 48 hrs by spot assay; format: functional, organism-based; details: dose 4.0 µg/ml
Candida parapsilosis [16] = assay: Antifungal activity against Candida parapsilosis 0306392 assessed as inhibition of fungal growth at 4 ug/ml incubated for 48 hrs by spot assay; format: functional, organism-based; details: dose 4.0 µg/ml
Candida tropicalis [17] = assay: Antifungal activity against Candida tropicalis 0370354 assessed as inhibition of fungal growth at 4 ug/ml incubated for 48 hrs by spot assay; format: functional, organism-based; details: dose 4.0 µg/ml
Candida albicans [18] = assay: Antifungal activity against Candida albicans SC5314 assessed as inhibition of fungal growth at 4 ug/ml incubated for 48 hrs by spot assay; format: functional, organism-based; details: dose 4.0 µg/ml
Candida albicans [19] = assay: Antifungal activity against fluconazole-resistant Candida albicans 901 assessed as inhibition of fungal growth at 4 ug/ml incubated for 48 hrs by spot assay; format: functional, organism-based; details: dose 4.0 µg/ml
Candida albicans [20] = assay: Antifungal activity against fluconazole-resistant Candida albicans 904 assessed as inhibition of fungal growth at 4 ug/ml incubated for 48 hrs by spot assay; format: functional, organism-based; details: dose 4.0 µg/ml

Row | SMILES | MIC80 (Candida albicans [1]) | MIC80 (Candida albicans [2]) | MIC80 (Cryptococcus neoformans [3]) | MIC80 (Candida parapsilosis [4]) | MIC80 (Candida tropicalis [5]) | MIC80 (Trichophyton rubrum) | MIC80 (Nannizzia gypsea) | MIC80 (Aspergillus fumigatus) | Ratio (Candida albicans [6]) | Ratio (Candida albicans [7]) | Ratio (Candida albicans [8]) | Ratio (Candida albicans [9]) | MIC80 (Candida albicans [10]) | MIC80 (Candida albicans [11]) | Activity (NIH3T3) | Ratio (Candida parapsilosis [12]) | Ratio (Candida parapsilosis [13]) | Ratio (Candida parapsilosis [14]) | Activity (Cryptococcus neoformans [15]) | Activity (Candida parapsilosis [16]) | further results
1 | OCCC1CCN(CCc2cn(C[C@H]3CO[C@](Cn4ccnc4)(c4ccc(O)cc4F)O3)nn2)CC1 (mixture of isomers) | 0.016 µg/mL | 0.016 µg/mL | 0.125 µg/mL | 0.125 µg/mL | 1 µg/mL | 0.125 µg/mL | 0.25 µg/mL | > 64 µg/mL | 64 | 16 | 64 | 16 | 2 µg/mL | 16 µg/mL | Non-Toxic | – | – | – | – | – | –
2 | Oc1ccc([C@@]2(Cn3ccnc3)OC[C@H](Cn3cc(CCN4CCCCC4)nn3)O2)c(F)c1 (mixture of isomers) | 0.063 µg/mL | 0.063 µg/mL | 0.063 µg/mL | 0.063 µg/mL | 0.125 µg/mL | 0.25 µg/mL | 0.25 µg/mL | > 64 µg/mL | – | – | – | – | – | – | – | 4 | 16 | 32 | – | – | –
3 | OCC1CCN(CCc2cn(C[C@H]3CO[C@](Cn4ccnc4)(c4ccc(O)cc4F)O3)nn2)CC1 (mixture of isomers) | 0.016 µg/mL | 0.016 µg/mL | 0.063 µg/mL | 0.063 µg/mL | 0.063 µg/mL | 0.5 µg/mL | 0.25 µg/mL | 16 µg/mL | 64 | 16 | 64 | 16 | 2 µg/mL | 8 µg/mL | Non-Toxic | – | – | – | Active | Active | Activity (Candida tropicalis [17]): Active; Activity (Candida albicans [18]): Active; Activity (Candida albicans [19]): Active; Activity (Candida albicans [20]): Active
4 | Oc1ccc([C@@]2(Cn3ccnc3)OC[C@H](Cn3cc(CCN4CCOCC4)nn3)O2)c(F)c1 (mixture of isomers) | 0.063 µg/mL | 0.063 µg/mL | 0.063 µg/mL | 0.125 µg/mL | 0.125 µg/mL | 0.5 µg/mL | 0.25 µg/mL | > 64 µg/mL | – | – | – | – | – | – | – | 4 | 16 | 32 | – | – | –
5 | OC(Cn1cncn1)(Cn1cncn1)c1ccc(F)cc1F [FLUCONAZOLE] | 0.25 µg/mL (≈ 0.816 µM) | 0.25 µg/mL (≈ 0.816 µM) | 1 µg/mL (≈ 3.27 µM) | 1 µg/mL (≈ 3.27 µM) | 16 µg/mL (≈ 52.2 µM) | 4 µg/mL (≈ 13.1 µM) | 1 µg/mL (≈ 3.27 µM) | > 64 µg/mL | – | – | – | – | > 64 µg/mL | > 64 µg/mL | – | – | – | – | Active | Active | Activity (Candida tropicalis [17]): Active; Activity (Candida albicans [18]): Active; Activity (Candida albicans [19]): inactive; Activity (Candida albicans [20]): inactive
